49 compounds from PubChem BioAssay (NCI) can be followed below.

Usually GI50 stands for the concentration at which growth is held to half of that of the control. The term TGI denotes the concentration at which net growth stops. A lower TGI goes with greater sensitivity of the cells.

Values joined by “and” are separate entries in the source; they are usually repeats but may differ in a detail not shown here. Identical values can stand only once.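 Cells were grown in 96-well plates and exposed to each compound for 48 hours at five concentrations; endpoints were interpolated linearly between bracketing concentrations, or set to the highest concentration if not reached. GI50: concentration for 50% inhibition of growth. TGI: total growth inhibition.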

For the experiment, the system named is MDA-MB-468 breast. Briefly: DTP human tumour cell line panel, 48 h.
With `NC(=O)c1sc(-n2cnc3ccc(C(F)(F)F)cc32)cc1OCc1ccccc1Br`, the GI50 is 0.349 µM and the TGI came to 0.977 µM.
As to `CCCCCCCCNC(C)C(O)c1ccc(SC(C)C)cc1` (stereo not drawn), the GI50 is 1.57 µM and the TGI came out at 3.24 µM.
Turning to `CCOC(=O)c1ccc(N(C=O)CCC(=O)CCl)cc1`, the GI50 was 0.382 µM and the TGI worked out at 2.13 µM.
Take `O=C1/C(=C/c2ccc(Cl)cc2)CN(C(=O)CCN2CCC(=NO)CC2)C/C1=C\c1ccc(Cl)cc1`: the GI50 was 0.833 µM and the TGI is 2.51 µM.
For `O=C(CCN1CCCC1)Nc1ccc2c(NCCc3ccccc3)c3ccccc3nc2c1` the same measures were 0.284 µM and 1.04 µM.
Taken in the same sequence, the figures for `COc1cnc2c(c1)C(=O)c1c-2n(CCCNCCN2CCOCC2)c(=O)c2cc([N+](=O)[O-])ccc12` were 0.124 µM and 0.605 µM.
For `O=C(NO)c1ccc(Cn2c(=O)n(-c3ccccc3)c(=O)c3ccccc32)cc1` the same measures were 0.542 µM and 2.23 µM.
For `C[C@@H](Oc1cc(-n2cnc3ccc(OCC4CCN(C)CC4)cc32)sc1C(N)=O)c1ccccc1Cl`, the GI50 is 0.0093 µM and the concentration for total growth inhibition (TGI) was determined as 0.22 µM.
For `CC[C@H](C)[C@H](NC(=O)NC(C)(C)C)C(=O)N(C)[C@H](C[C@@H](OC(C)=O)c1nc(C(=O)N[C@@H](Cc2ccccc2)C[C@H](C)C(=O)OC)cs1)C(C)C` the same measures were 0.0797 µM and 0.441 µM.
Taken in the same sequence, the figures for `COC1C(CO)OC(n2c3c(Cl)cccc3c3c4c(c5c6cccc(Cl)c6[nH]c5c32)C(=O)NC4=O)C(O)C1O` (stereo not drawn) were 0.0743 µM and 0.352 µM.
`COc1cc(/C(=C2/O[C@@H]([C@H]3COC(C)(C)O3)[C@H]3OC(C)(C)O[C@@H]23)c2ccc3c(c2)OCO3)cc(OC)c1OC`: the GI50 was 7.93 µM and the TGI is over 25 µM.
`O=C(c1nn(-c2ccc(Cl)cc2)cc1O)n1nc(C(F)(F)F)cc1-c1ccccc1`: the GI50 is 4.5 µM and the TGI was over 100 µM.
For `O=C1CC(c2ccsc2)c2snc(-c3ccc(Cl)cc3)c2N1` (stereo not drawn) the same measures were 0.291 µM and 1.72 µM.
For `CCSc1ccc([C@@H]2[C@@H](N)C(=O)N2c2cc(OC)c(OC)c(OC)c2)cc1`, the GI50 is 0.0775 µM and the TGI is over 100 µM.
For `Oc1ccc(Oc2cnc3cc(Cl)ccc3n2)cc1` the same measures were 26.3 µM and over 100 µM.
Taken in the same sequence, the figures for `O=c1[nH]c(Sc2sc3ccc(Cl)cc3c2CBr)nc(=S)[nH]1` were over 68.8 µM and over 100 µM.
As for `O=c1c2c(=NCCN3CCCC3)cc3c(=O)n(CCCN4CCOCC4)c(=O)c4ccc(c(O)n1CCCN1CCOCC1)c2c4-3`, the GI50 is 0.109 µM and the TGI was 0.335 µM.
Taken in the same sequence, the figures for `CCCCCCCCCCCC1=NC(C)(C)CN1CC(C)O` (stereo not drawn) were 2.11 µM and 10.9 µM.
Taken in the same sequence, the figures for `Nc1nccc2c1ccn2-c1cccc(NC(=O)c2ccc(N3CCOCC3)c(C(F)(F)F)c2)c1` were 0.331 µM and 3.19 µM.
For `CN1CCN(c2ccc3nc(-c4[nH]ncc4Nc4ncnc5c4OCCCN5)[nH]c3c2)CC1` the same measures were under 0.01 µM and 0.0211 µM.
Consider `COc1ccc(-c2nc(-c3ccccn3)c(-c3ccccn3)n2CC(C)C)cc1OC1CCCC1`, for which the GI50 is 38.4 µM and the TGI was 136 µM.
Taken in the same sequence, the figures for `O=C(Nc1ccc(Oc2ccc(NC(=O)Nc3ccc([N+](=O)[O-])cc3)cc2)cc1)Nc1ccc([N+](=O)[O-])cc1` were 1.56 µM and 14.1 µM.
Regarding `O=C(O)c1cn(C2CC2)c2cc(N3CCNCC3)c(F)cc2c1=O`, the GI50 was over 100 µM and the TGI was over 100 µM.
For `O=C(Nc1ccc(Nc2ccncc2)cc1)c1ccc(Nc2ccnc3ccc([N+](=O)[O-])cc23)cc1[N+](=O)[O-]`, the GI50 is 1.75 µM and the TGI came out at 18.3 µM.
For `COc1ccc(-c2nnc(SCC(=O)Nc3ccc(C(=O)/C=C/c4cc(OC)c(OC)c(OC)c4)cc3)n2-c2ccccc2)cc1OC` the same measures were 4.61 µM and over 10 µM.
Taken in the same sequence, the figures for `Clc1ccc2nc(Cl)c3ccccc3c2c1` were 10.5 µM and 38.7 µM.
As to `C#C[C@]1(O)CC[C@H]2[C@@H]3CC=C4c5sc(NCc6ccccc6)nc5CC[C@]4(C)[C@H]3CC[C@@]21C`, the GI50 was 4.4 µM and the TGI came out at 18.3 µM.
For `CN(C)c1ccc(Nc2c3ccccc3nc3cc(NC(=O)CCN4CCCC4)ccc23)cc1` the same measures were 0.29 µM and 1.13 µM.
For `CC[C@H](C)[C@H]1NC(=O)[C@@H]([C@H](O)C(C)C)NC(=O)[C@@H](C)N(C)C(=O)[C@H](C)N(C)C(=O)[C@H](CC(C)C)NC(=O)[C@H](CC(C)C)N(C)C(=O)[C@H](C)N(C)C1=O` the same measures were 0.536 µM and 10.5 µM.
For `CCOC(=O)c1ccccc1SC(C[N+](=O)[O-])c1ccccc1` (stereo not drawn) the same measures were 1.71 µM and 4.06 µM.
For the compound `CCCCCCCCCCC[C@@H](C[C@H]1OC(=O)[C@H]1CCCCCC)OC(=O)[C@@H](CC(C)C)NC=O`, the GI50 is 14.1 µM and the TGI was 48.3 µM.
For `COc1cc(-c2nc3cc(Cl)c(Cl)cc3[nH]2)ccc1OCC(=O)N=Nc1c(O)[nH]c2ccc(Cl)cc12` the same measures were 0.256 µM and 0.697 µM.
For `Fc1ccc([C@@H]2CCNC[C@H]2COc2ccc3c(c2)OCO3)cc1` the same measures were 5.33 µM and 21 µM.
For `Cc1cc(NCc2cc(Nc3ccnc4cc(Cl)ccc34)ccc2F)nc(N2CCSCC2)n1` the same measures were 1.92 µM and 4.77 µM.
For `C=C(C)[C@@H]1CC[C@]2(C(=O)O)CC[C@]3(C)[C@H](CC[C@@H]4[C@@]5(C)C/C(=C/c6cccc(I)c6)C(=O)C(C)(C)[C@@H]5CC[C@]43C)[C@@H]12`, the GI50 was 2.45 µM and the TGI turned out to be 11.1 µM.
In the case of `O=C1NC(=O)[C@@H](c2c[nH]c3ccccc23)[C@@H]1c1c[nH]c2ccccc12`, the GI50 is over 25 µM and the TGI was over 25 µM.
For `COc1ccc(C(=O)/C=C/c2cc(-c3ccc4c(c3)OCO4)n[nH]2)cc1OC`, the GI50 is 1.86 µM and the TGI amounted to 4.52 µM.
Taken in the same sequence, the figures for `COc1ccc2c(c1)[nH]c(=O)c1c3cc(OC)c(OC)cc3cn21` were 0.0208 µM and 0.0492 µM.
Taken in the same sequence, the figures for `CCN(CC)CCOc1ccc(C(=C(c2ccccc2)C2CCCC2)c2ccc(OCCN(CC)CC)cc2)cc1` were 2.3 µM and 5.51 µM.
For `CNC(=O)c1cc(Oc2ccc3nc(N[C@@H]4CCCC[C@H]4O)sc3c2)ccn1`, the GI50 is 23.7 µM and the TGI is over 89.7 µM.
For `OCCn1cc(-c2cnc3nnn(Cc4ccc5ncccc5c4)c3n2)cn1`, the GI50 was 98.8 µM and the TGI was over 100 µM.
Take `COc1ccc(C2=N[C@@H](c3ccc(Cl)cc3)[C@@H](c3ccc(Cl)cc3)N2C(=O)N2CCNC(=O)C2)c(OC(C)C)c1`: the GI50 is 12.2 µM and 11.5 µM and 12.7 µM; the concentration for total growth inhibition (TGI) is 25.2 µM and 24.5 µM and 26.6 µM.
As to `COc1cc(-c2nc(-c3ccc(-c4nc5ccc(F)cc5[nH]4)cc3)no2)cc(OC)c1OC`, the GI50 is 3.01 µM and the TGI came out at 17.5 µM.
As to `CC(C)=CC(=O)N[C@@H]1CC2CCC3C(CC[C@@]4(C)C3CC[C@@H]4C(C)N(C)C)[C@@]2(C)C[C@@H]1O` (stereo partly drawn), the GI50 is 1.54 µM and the TGI was determined as 8.98 µM.
Consider `COc1cc(C(=O)O/N=C(\N)Cc2cccc3ccccc23)cc(OC)c1OC`, for which the GI50 is 15.7 µM and the TGI turned out to be 33.2 µM.
On to `CCOC(=O)Cn1c(-c2nonc2NC(=O)c2ccccc2F)nc2ccccc21`, for which the GI50 is 21.8 µM and the TGI is over 100 µM.
Taken in the same sequence, the figures for `COc1ccc(/C=N\NC(=O)c2ccc3nc(-c4ccc(Cl)cc4)[nH]c3c2)cc1` were 1.94 µM and 4.55 µM.
On to `c1ccc2cc(C[n+]3ccn(Cc4ccc5ccccc5n4)c3)ccc2c1`, for which the GI50 is 0.0807 µM and 0.611 µM; the TGI is 0.496 µM and 4.14 µM.
As for `Cc1ccc(-c2cc(-c3ccc(C)cc3)nc(N3CCN(CCNc4ccnc5cc(Cl)ccc45)CC3)n2)cc1`, the GI50 is 1.74 µM and the TGI is 8.3 µM.
